# Test results reported in patent US4140707A, “Malonato platinum anti-tumor compounds” (priority 1977, dated 1979).
# Experiments:
# [1] = Hydrolysis by U.V./vis spectral and conductivity studies; format: physicochemical
# Description: *U.V./via spectral and conductivity studies have shown that hydrolysis is negligible.
# Sarcoma 180 [2] = assay: Large Sarcoma 180 regressions (Table II), injection day 8, observed approximately 60 days; format: in vivo, female Swiss white mice; details: single i.p. day 8, H2O solution
# Method: In addition to the day 1 injections described above, in a number of cases injections were delayed until day 8 of tumor growth. In these cases the tumor was usually at least larger than 1/2 gm, as estimated by palpation. The animals were then injected and observed for a period of approximately 60 days. Activity was measured by the number of animals whose tumors had regressed to the vanishing point, while still allowing the animal to survive for this time period. Such test results are described in TABLE II below.
# Sarcoma 180 [3] = assay: Antitumor activity, solid Sarcoma 180 (Table I), T/C tumor weight ratio, sacrifice day 10; format: in vivo, female Swiss white mice
# Method: The compounds of the invention were tested for anti-tumor activity using our standard screening tumor, solid sarcoma 180 tumer in female Swiss white mice, following standard protocols for this testing as set by the National Cancer Institute. (Cancer Chemotherapy Rep., 25(1962)).
# For these tests an S 180 tumor taken from a sacrificed mouse was disected free of superfluous tissue and cut under sterile conditions into approximately 10 milligram size pieces. These tissue pieces were then implanted by trocar in the left axillary region, subcutaneously, in new mice. The mice were, on the average, approximately four weeks old and weighed 18-20 grams. Taking day 0 as the day of implant, the animals were sacrificed on day 10. The tumors were excised and weighed and the ratio of the weights of the tumors in mice in the treated animals to the control set of animals was obtained. This ratio, multiplied by 100, is given as the T/C ratio in Table I.
# For the first set of tests the coordination compound was freshly dissolved in sterile distilled water and injected intraperitoneally on day 1 into each of the test mice. The volume of the injection was usually 1/2 ml. In some cases, in order to get an active dose into the animal where the chemical was not soluble in this amount of solvent, a fine dispersion was prepared of the dose needed for the test. Thus, some of our test results were obtained on animals where a slurry of the compound was injected. These are so noted in Table I below. In addition, for some of the compounds, there was injected about 1 ml of solution, either in one single injection, or in 2 injections given a few hours apart of 1/2 ml each. These injections were initially given in 4 different dose levels for each new compound with 6 mice in each dose level. The tests covered a dose range from a low ineffective dose, to an upper dose level which produced some deaths within the time period of the experiment.
# [4] = test system: Walker 256 Carcinosarcoma; assay: Confirmatory antitumor activity, Walker 256 Carcinosarcoma (Table III); format: in vivo, Rat; details: i.p.
# Method: (§1) Confirmatory tests of antitumor activity against the Walker 256 Circinosarcoma in rats, and the ADJ/PC6A tumor in mice were conducted. The initial test results are shown in Table III and confirm the potent action of the compounds of the invention against these other tumor systems.
# L1210 = assay: Confirmatory antitumor activity at the National Cancer Institute, L1210 (Table IV); format: in vivo, Mice
# Description: Samples of the malonato diammine and malonato ethylene diamino complexes of platinum(II) were submitted to the Drug Research and Development Branch of the National Cancer Institute for screening for antitumor activity against the L1210 tumor in mice. They confirm the activity of the compounds of the invention.
# ADJ/PC6A = assay: Confirmatory antitumor activity, ADJ/PC6A (Table III); format: in vivo, Mouse; details: i.p.
# Method: as §1
# [5] = 4 mg/kg, i.p. daily for days 1-10, solution in H2O
# [6] = 5 mg/kg, i.p. daily for days 1-10, solution in H2O
# [7] = 6 mg/kg, i.p. daily for days 1-10, solution in H2O
# [8] = 7 mg/kg, i.p. daily for days 1-10, solution in H2O
# [9] = 10 mg/kg, single i.p. day 1, slurry in H2O
# [10] = 15 mg/kg, single i.p. day 1, slurry in H2O
# [11] = 20 mg/kg, single i.p. day 1, slurry in H2O
# [12] = 25 mg/kg, single i.p. day 1, slurry in H2O
# [13] = 30 mg/kg, single i.p. day 1, slurry in H2O
# [14] = 50 mg/kg, single i.p. day 1, slurry in H2O
# [15] = 10 mg/kg, single injection day 1 in oil
# [16] = 20 mg/kg, single injection day 1 in oil
# [17] = 40 mg/kg, single injection day 1 in oil
# [18] = 80 mg/kg, single injection day 1 in oil
# [19] = 10 mg/kg, single i.p. day 1, solution in H2O
# [20] = 20 mg/kg, single i.p. day 1, solution in H2O
# [21] = 40 mg/kg, single i.p. day 1, solution in H2O
# [22] = 45 mg/kg, single i.p. day 1, solution in H2O
# [23] = 50 mg/kg, single i.p. day 1, solution in H2O
# [24] = 55 mg/kg, single i.p. day 1, solution in H2O
# [25] = 60 mg/kg, single i.p. day 1, solution in H2O
# [26] = 60 mg/kg, single i.p. day 1, vehicle not noted
# [27] = 80 mg/kg, single i.p. day 1, solution in H2O
# [28] = 80 mg/kg, single i.p. day 1, vehicle not noted
# [29] = 100 mg/kg, single i.p. day 1, vehicle not noted
# [30] = 120 mg/kg, single i.p. day 1, vehicle not noted
# [31] = dose 4, single injection day 25 in oil
# [32] = dose 20, single injection day 25 in oil
# [33] = dose 100, single injection day 25 in oil
compound,measurement,setting,value
O=C(O)CC(=O)O.[NH2-].[NH2-].[Pt+2] [Malonatodiammineplatinum(II)],hydrolysis,[1],negligible
same,Deaths,Sarcoma 180 [2]; 14 mg/kg,4
same,Total Number of Regressions,Sarcoma 180 [2]; 14 mg/kg,2
same,Deaths,Sarcoma 180 [2]; 16 mg/kg,3
same,Total Number of Regressions,Sarcoma 180 [2]; 16 mg/kg,3
same,Deaths,Sarcoma 180 [2]; 18 mg/kg,2
same,Total Number of Regressions,Sarcoma 180 [2]; 18 mg/kg,4
same,Deaths,Sarcoma 180 [2]; 20 mg/kg,1
same,Total Number of Regressions,Sarcoma 180 [2]; 20 mg/kg,5
same,No. of Deaths,Sarcoma 180 [3]; [5],0
same,T/C,Sarcoma 180 [3]; [5],54
same,No. of Deaths,Sarcoma 180 [3]; [6],0
same,T/C,Sarcoma 180 [3]; [6],56
same,No. of Deaths,Sarcoma 180 [3]; [7],0
same,T/C,Sarcoma 180 [3]; [7],23
same,No. of Deaths,Sarcoma 180 [3]; [8],0
same,T/C,Sarcoma 180 [3]; [8],12
same,No. of Deaths,Sarcoma 180 [3]; [9],0
same,T/C,Sarcoma 180 [3]; [9],76
same,No. of Deaths,Sarcoma 180 [3]; [10],0
same,T/C,Sarcoma 180 [3]; [10],38
same,No. of Deaths,Sarcoma 180 [3]; [11],0
same,T/C,Sarcoma 180 [3]; [11],64
same,No. of Deaths,Sarcoma 180 [3]; [12],0
same,T/C,Sarcoma 180 [3]; [12],31
same,No. of Deaths,Sarcoma 180 [3]; [13],1/6
same,T/C,Sarcoma 180 [3]; [13],7
same,No. of Deaths,"Sarcoma 180 [3]; 40 mg/kg, single i.p. day 1, slurry in H2O",6/6
same,No. of Deaths,Sarcoma 180 [3]; [14],5/6
same,T/C,Sarcoma 180 [3]; [14],1
same,No. of Deaths,"Sarcoma 180 [3]; 60 mg/kg, single i.p. day 1, slurry in H2O",6/6
same,% Inhibition,[4]; [15],100%
same,Deaths,[4]; [15],0
same,% Inhibition,[4]; [16],100%
same,Deaths,[4]; [16],0
same,% Inhibition,[4]; [17],100%
same,Deaths,[4]; [17],0
same,Deaths,[4]; [18],0
NCCN.O=C([O-])CC(=O)[O-].[Pt+2] [malonatoethylenediamineplatinum (II)],Deaths,Sarcoma 180 [2]; 40 mg/kg,3
same,Total Number of Regressions,Sarcoma 180 [2]; 40 mg/kg,3
same,Deaths,Sarcoma 180 [2]; 45 mg/kg,5
same,Total Number of Regressions,Sarcoma 180 [2]; 45 mg/kg,1
same,Deaths,Sarcoma 180 [2]; 50 mg/kg,4
same,Total Number of Regressions,Sarcoma 180 [2]; 50 mg/kg,2
same,Deaths,Sarcoma 180 [2]; 60 mg/kg,3
same,Total Number of Regressions,Sarcoma 180 [2]; 60 mg/kg,3
same,No. of Deaths,Sarcoma 180 [3]; [19],0
same,T/C,Sarcoma 180 [3]; [19],88
same,No. of Deaths,Sarcoma 180 [3]; [20],0
same,T/C,Sarcoma 180 [3]; [20],58
same,No. of Deaths,Sarcoma 180 [3]; [21],0
same,T/C,Sarcoma 180 [3]; [21],18
same,No. of Deaths,Sarcoma 180 [3]; [22],0
same,T/C,Sarcoma 180 [3]; [22],49
same,No. of Deaths,Sarcoma 180 [3]; [23],0
same,T/C,Sarcoma 180 [3]; [23],35
same,No. of Deaths,Sarcoma 180 [3]; [24],0
same,T/C,Sarcoma 180 [3]; [24],38
same,No. of Deaths,Sarcoma 180 [3]; [25],3/6
same,T/C,Sarcoma 180 [3]; [25],15
same,No. of Deaths,Sarcoma 180 [3]; [26],0
same,T/C,Sarcoma 180 [3]; [26],80
same,No. of Deaths,Sarcoma 180 [3]; [27],3/6
same,T/C,Sarcoma 180 [3]; [27],24
same,No. of Deaths,Sarcoma 180 [3]; [28],0
same,T/C,Sarcoma 180 [3]; [28],138
same,No. of Deaths,Sarcoma 180 [3]; [29],0
same,T/C,Sarcoma 180 [3]; [29],85
same,No. of Deaths,Sarcoma 180 [3]; [30],0
same,T/C,Sarcoma 180 [3]; [30],50
same,% Increase in Lifespan,"L1210; 16.5 mg/kg, i.p. daily days 1-9, repeat test",160%
same,% Increase in Lifespan,"L1210; 25 mg/kg, i.p. daily days 1-9",160%
same,% Inhibition,ADJ/PC6A; [31],1.3%
same,Deaths,ADJ/PC6A; [31],0
same,% Inhibition,ADJ/PC6A; [32],94%
same,Deaths,ADJ/PC6A; [32],0
same,% Inhibition,ADJ/PC6A; [33],100%
same,Deaths,ADJ/PC6A; [33],0
same,Deaths,"ADJ/PC6A; dose 500, single injection day 25 in oil",all
same,% Inhibition,[4]; [15],1%
same,Deaths,[4]; [15],0
same,% Inhibition,[4]; [16],25%
same,Deaths,[4]; [16],0
same,% Inhibition,[4]; [17],100%
same,Deaths,[4]; [17],0
same,Deaths,[4]; [18],0
same,% Inhibition,"[4]; dose 80, single injection day 1 in oil",100%
same,Deaths,"[4]; dose 160, single injection day 1 in oil",all
